Measured values as given in patent publication US8106155B2, “Test kit for determining process for determining antibiotics containing a beta-lactam ring in a biological fluid” (Neogen Corporation, priority 1998, dated 2012).
Where two headings read alike, the source gives them in different places.

What was measured:
[1] = target: T1, BlaR-CTD receptor in the form of a fusion protein with alkaline phosphatase or peroxidase (Bacillus licheniformis, UniProt P12287); assay: Example 4: BlaR-CTD fusion protein with alkaline phosphatase or peroxidase, coated tube, milk; type: binding; conditions: absorbance at 405 nm, 47° C.
T1 construct: uses the BlaR-CTD receptor in the form of a fusion protein with alkaline phosphatase or peroxidase
T1 sequence (P12287 354-601): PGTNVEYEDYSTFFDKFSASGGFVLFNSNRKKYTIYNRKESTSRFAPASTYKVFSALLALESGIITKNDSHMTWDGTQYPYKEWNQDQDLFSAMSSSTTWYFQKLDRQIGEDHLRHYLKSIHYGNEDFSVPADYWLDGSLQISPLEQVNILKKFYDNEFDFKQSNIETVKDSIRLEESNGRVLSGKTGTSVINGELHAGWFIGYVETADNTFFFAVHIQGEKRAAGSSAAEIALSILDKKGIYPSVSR
Procedure: The test described in this example uses the BlaR-CTD receptor in the form of a fusion protein with alkaline phosphatase or peroxidase, and uses a support in the form of a coated tube.
In this example, polystyrene tubes with high protein absorption of the brand name NUNK (Maxisorp type) are used, which are treated with a reference antibiotic solution as indicated in Example 3.3.2.
7 picomol of recognition agent are incubated in the presence of 500 μl of milk for 5 minutes at 47° C. in an Eppendorf tube. […] The milk is then incubated for 2 minutes at 47° C. After removing the milk, the tube is washed twice with 1 ml of 1 M, pH 9.8 diethanolamine buffer, 0.5 mM MgCl2. […] The absorbance of the supernatant is then measured using a spectrophotometer whose wavelength is set at 405 nm.

BlaR-CTD receptor [2] = target: T2, BlaR-CTD receptor (Bacillus licheniformis, UniProt P12287); assay: 20-minute test: BlaR-CTD coupled to gold beads, membrane test device, milk; type: binding; conditions: 47° C.; for Intensity 1st band: 20-minute test, scale 0 to 10, reference band 6
T2 construct: uses the BlaR-CTD receptor coupled to gold beads
T2 sequence (P12287 354-601): as above
Procedure: (§1) This example illustrates the detection in milk of antibiotics containing a β-lactam ring, which are controlled by the health authorities. The test described in this example uses the BlaR-CTD receptor coupled to gold beads which serve as labelling agents, and uses a support in the form of a test device comprising a solid support to which membranes are attached.
6 samples of fresh milk containing 0; 20; 30; 40; 50 and 60 ppb of ceftiofur, respectively, are prepared. Each of these solutions is then analyzed in the following way.
(§2) A 200 μl aliquot sample of milk and 45.27 μl of solution prepared in Example 1.1.3 are taken and placed in a glass flask. This mixture is incubated for 18 minutes at 47° C. A test device is taken and placed vertically in the glass flask such that the first end of the test device is in contact with the mixture and such that the second end rests on the wall of the glass flask. The mixture is left to migrate on the test device, while incubating the assembly for 2 minutes at 47° C.
(§3) An intensity value ranging from 0 to 10 is attributed to the bands detected, the value 10 being given to the most intense band and the value 0 being given to the least intense band. According to this scale, a value of 6 is assigned to the reference band. The intensity of the signal observed in the first band is inversely proportional to the amount of ceftiofur present in the sample.
In this example, when the first band has an intensity less than that of the second band, the test is considered as being positive.

[3] = target: T3, BlaR-CTD receptor in the form of two fusion proteins with alkaline phosphatase and peroxidase (Bacillus licheniformis, UniProt P12287); assay: Example 3: BlaR-CTD fusion proteins with alkaline phosphatase and peroxidase, cephalosporin C microplate, milk; type: binding; conditions: absorbance at 405 nm, 47° C., at the control thresholds required by the US authorities
T3 construct: uses the BlaR-CTD receptor in the form of two fusion proteins with alkaline phosphatase and peroxidase, respectively; alkaline phosphatase, chemically coupled (Boehringer-Mannheim 1464752); peroxidase, chemically coupled (Boehringer-Mannheim 1428861)
T3 sequence (P12287 354-601): as above
Description: This example illustrates the detection in milk of 3 antibiotics containing a β-lactam ring which are controlled by the health authorities. The test described in this example uses the BlaR-CTD receptor in the form of two fusion proteins with alkaline phosphatase and peroxidase, respectively, and uses a support in the form of a microplate.
Polystyrene microplates with high protein adsorption, of the brand name NUNK (Immuno Plate: Maxisorp type) or of the brand name GREINER (microlon 600, reference 705071), are used. The microplate cuvettes are washed with 150 mM, pH 7.2 PBS buffer. Next, an aliquot of the solution prepared in Example 3.3.1. is incubated for 24 hours at 4° C. in the cuvettes. After incubation, the cuvettes are washed three times with 150 mM, pH 7.2 PBS buffer, 0.1% Tween-20. The tube is then saturated for two hours at 20° C. with 150 mM, pH 7.2 PBS saturation buffer, 5% BSA. After washing three times with washing buffer, the tubes are dried and stored at 4° C. away from moisture.
For the cuvettes intended for the BlaR-CTD-alkaline phosphatase recognition agent, the washing buffer used is 1 M, pH 9.8 diethanolamine, 0.5 mM MgCl2: for the cuvettes intended for the BlaR-CTD-peroxidase recognition agent, the washing buffer used is 50 mM, pH 5 potassium phosphate.
1.4 picomol of labelled recognition agent are incubated in the presence of 100 μl of doped milk for 5 minutes at 47° C. The milk is transferred using a pipette into a cuvette which has been pretreated as indicated in Example 2.3. The milk is then incubated for 2 minutes at 47° C. […] The plate is then placed in an automatic spectrophotometer for ELISA plates, the wavelength being set at 405 nm.

BlaR-CTD receptor [4] = target: T2, BlaR-CTD receptor; assay: 3-minute rapid test: BlaR-CTD coupled to gold beads, membrane test device, milk; type: binding; conditions: 47° C.; for concentration detected in a sample of milk: test carried out in 3 minutes, positive when 1st band less intense than 2nd band; for Intensity 1st band: 3-minute test, scale 0 to 10, reference band 6
Procedure: as §1
7 samples of fresh milk containing 0; 1; 2; 3; 4; 5 and 6 ppb of penicillin G, respectively, are prepared. Each of these solutions is then analyzed in the following way:
as §2, with “1 minute” for “18 minutes”
as §3, with “penicillin G” for “ceftiofur”
In this example, when the first band has an intesity less than that of the second band, the test is considered as being positive.

[5] = target: soluble exocellular D-alanyl-D-alanine carboxypeptidase (enzyme R39) (Actinomadura sp., UniProt P39045); conditions: cited from earlier work
soluble exocellular D-alanyl-D-alanine carboxypeptidase (enzyme R39), sequence (P39045 50-515): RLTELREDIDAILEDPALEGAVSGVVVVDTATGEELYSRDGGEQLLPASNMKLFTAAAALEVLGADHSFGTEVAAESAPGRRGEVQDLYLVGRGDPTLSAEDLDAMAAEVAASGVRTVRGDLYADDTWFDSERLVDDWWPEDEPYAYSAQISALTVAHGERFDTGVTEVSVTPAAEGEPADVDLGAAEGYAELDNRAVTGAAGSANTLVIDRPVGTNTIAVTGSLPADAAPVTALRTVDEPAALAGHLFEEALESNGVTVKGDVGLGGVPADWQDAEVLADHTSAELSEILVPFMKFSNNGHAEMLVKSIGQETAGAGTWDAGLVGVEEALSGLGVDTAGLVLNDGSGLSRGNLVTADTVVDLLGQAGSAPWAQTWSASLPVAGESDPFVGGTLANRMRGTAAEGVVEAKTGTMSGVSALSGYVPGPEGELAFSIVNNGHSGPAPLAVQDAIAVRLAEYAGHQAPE

| Compound | concentration determined in milk [1] | Intensity 1st band (BlaR-CTD receptor [2]; 20 ppb ceftiofur in milk) | Intensity 1st band (BlaR-CTD receptor [2]; 30 ppb ceftiofur in milk) | Intensity 1st band (BlaR-CTD receptor [2]; 40 ppb ceftiofur in milk) | Intensity 1st band (BlaR-CTD receptor [2]; 50 ppb ceftiofur in milk) | Intensity 1st band (BlaR-CTD receptor [2]; 60 ppb ceftiofur in milk) | concentration detected in a sample of milk (BlaR-CTD receptor [2]; test in 20 minutes, positive when 1st band less intense than 2nd band) | concentration detected in milk [3] | concentration detected in a sample of milk (BlaR-CTD receptor [4]) | concentration determined in milk ([5]; total incubation time of 5 minutes) | concentration determined in milk ([5]; total incubation time of 15 minutes) | Intensity 1st band (BlaR-CTD receptor [4]; 1 ppb penicillin G in milk) | Intensity 1st band (BlaR-CTD receptor [4]; 2 ppb penicillin G in milk) | Intensity 1st band (BlaR-CTD receptor [4]; 3 ppb penicillin G in milk) | Intensity 1st band (BlaR-CTD receptor [4]; 4 ppb penicillin G in milk) | Intensity 1st band (BlaR-CTD receptor [4]; 5 ppb penicillin G in milk) | Intensity 1st band (BlaR-CTD receptor [4]; 6 ppb penicillin G in milk) |
| --- | --- | --- | --- | --- | --- | --- | --- | --- | --- | --- | --- | --- | --- | --- | --- | --- | --- |
| CO/N=C(\C(=O)N[C@@H]1C(=O)N2C(C(=O)O)=C(CSC(=O)c3ccco3)CS[C@H]12)c1csc(N)n1 [ceftiofur] | less than 50 ppb | 6 | 5 | 4 | 3 | 3 | 30 ppb | 50 ppb | – | – | – | – | – | – | – | – | – |
| CC(=O)OCC1=C(C(=O)O)N2C(=O)[C@@H](NC(=O)CSc3ccncc3)[C@H]2SC1 [cephapirin] | less than 20 ppb | – | – | – | – | – | – | – | 20 ppb | – | – | – | – | – | – | – | – |
| CC1(C)S[C@@H]2[C@H](NC(=O)Cc3ccccc3)C(=O)N2[C@H]1C(=O)O [penicillin G] | less than 5 ppb | – | – | – | – | – | – | 5 ppb | less than 4 ppb | 10 ppb | about 2.5 ppb | 9 | 9 | 4 | 0 | 0 | 0 |
